“Also recorded” adds a separate entry of the source.
How the values were obtained:
Rgp = conditions: cited from earlier work
P. gingivalis = conditions: cited from earlier work
[1] = test system: differentiated SH-SY5Y neuronal cells exposed to Kgp and/or RgpB; assay: gingipain induced toxicity in differentiated SH-SY5Y neuronal cells; type: cell-based; conditions: 100 nM Kgp and/or RgpB, 24 hours, microscopy
Experimental: SH-SY5Y neuroblastoma cells were cultured and differentiated in the presence of 5 uM retinoic acid based on established methods. Differentiation into neuronal cells was verified by observation of neurite outgrowth. The differentiated cells were exposed to 100 nM Kgp and/or RgpB for 24 hours, in the presence or absence of gingipain inhibitors. Results were recorded using a digital microscope camera.

Row | Molecule | growth inhibition of P. gingivalis (P. gingivalis) | protection against gingipain induced toxicity / cell death [1] | also measured
1 | phenylalanyl-ureido-citrullinyl-valyl-cycloarginal [FA-70C1] | exhibits growth-inhibitory activity |  | Rgp inhibition (Rgp): potent Rgp inhibitor
2 | CN(C)C(=O)[C@H](CCCCN)NC(=O)C(=O)[C@H](CCCN=C(N)N)NC(=O)[C@H](CCCCN)NC(=O)OCc1ccccc1 [Kyt-1] |  | can protect neurons; also recorded: effective but less so | 
3 | NC(=O)CI [iodoacetamide] |  | blocks toxicity | protection against gingipain induced toxicity / cell death ([1]; listed as Iodoacetamide): prevents this effect
4 | CC(C)C[C@H](NC(=O)[C@@H](O)[C@H](N)Cc1ccccc1)C(=O)O [bestatin] | selectively inhibits growth |  | 
5 | CN(NC(=O)CC[C@H](NC(=O)OCc1ccccc1)C(=O)N[C@@H](CCCCN)C(=O)C(=O)NCc1ccccc1)c1ccccc1 [Kyt-36] |  | can protect neurons; also recorded: more protective than Rgp inhibitors; also recorded: largely blocks gingipain induced toxicity | protection against gingipain induced toxicity / cell death ([1]; listed as Kyt 36): prevented gingipain induced neurodegeneration
